The results in this text go back to patent US20170355705A1 (GlaxoSmithKline Intellectual Property (No.2) Limited, priority 2014, published 2017).

Molecules are shown by their SMILES.

The experiment has as its target T1, SIRT1 (Homo sapiens, UniProt Q96EB6).
T1 sequence (Q96EB6 1-747): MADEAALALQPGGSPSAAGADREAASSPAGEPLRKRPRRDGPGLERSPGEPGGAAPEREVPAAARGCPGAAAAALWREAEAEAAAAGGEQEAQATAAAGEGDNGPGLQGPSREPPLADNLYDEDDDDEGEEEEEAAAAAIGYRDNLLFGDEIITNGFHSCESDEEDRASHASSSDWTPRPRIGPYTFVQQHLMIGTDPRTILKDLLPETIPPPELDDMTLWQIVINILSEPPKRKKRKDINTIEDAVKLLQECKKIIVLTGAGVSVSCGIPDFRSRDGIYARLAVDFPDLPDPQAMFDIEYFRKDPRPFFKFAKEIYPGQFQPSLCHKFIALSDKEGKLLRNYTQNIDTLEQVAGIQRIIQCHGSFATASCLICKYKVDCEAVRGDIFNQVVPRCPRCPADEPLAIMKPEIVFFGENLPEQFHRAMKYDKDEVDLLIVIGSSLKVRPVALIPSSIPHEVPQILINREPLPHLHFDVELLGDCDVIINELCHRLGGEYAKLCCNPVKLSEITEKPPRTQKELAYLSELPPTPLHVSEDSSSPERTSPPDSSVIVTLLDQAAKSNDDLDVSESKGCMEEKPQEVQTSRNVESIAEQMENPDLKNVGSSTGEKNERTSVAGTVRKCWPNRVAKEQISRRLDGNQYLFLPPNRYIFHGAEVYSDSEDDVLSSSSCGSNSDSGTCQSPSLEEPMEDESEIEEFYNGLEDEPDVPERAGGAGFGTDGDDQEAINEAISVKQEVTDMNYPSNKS
The experiment in a line: Trp mass spectrometry assay of SIRT1 activity (EC1.5, percent maximum activation). The following applies: Trp mass spectrometry assay; for TRP Activity (EC1.5): EC1.5 = concentration giving 150% activation of SIRT1; for TRP MAX RESP (percent maximum fold activation): percent maximum activation of SIRT1. Type of experiment: biochemical. The gist of the method:
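Mass spectrometry read-out (OAADPR formed, or deacetylated Trp peptide) after a 25 min NAD-dependent deacetylation by E. coli-expressed His-SIRT1, stopped with formic acid.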

On to `Cc1cc(-c2nc3c(cc2C#N)N2CC[C@@H](C2)N3C(=O)Nc2ccccn2)ccn1` [Example 92, (4S)-8-cyano-7-(2-methylpyridin-4-yl)-N-(pyridin-2-yl)-3,4-dihydro-1,4-methanopyrido[2,3-b][1,4]diazepine-5(2H)-carboxamide], for which the “TRP Activity (EC1.5)” value is reported as “B (EC1.5 1-25 μM)” and the “TRP MAX RESP (percent maximum fold activation)” value is given as “A (Fold activation ≧150%)”.

For `Cc1cc(-c2nc3c(cc2Cl)N2CC[C@@H](C2)N3C(=O)Nc2cccc(OC[C@@H](O)CO)n2)ccn1` [Example 93, (4S)-8-chloro-N-(6-((S)-2,3-dihydroxypropoxy)pyridin-2-yl)-7-(2-methylpyridin-4-yl)-3,4-dihydro-1,4-methanopyrido[2,3-b][1,4]diazepine-5(2H)-carboxamide], the “TRP Activity (EC1.5)” value is given as “B (EC1.5 1-25 μM)” and the “TRP MAX RESP (percent maximum fold activation)” value was “A (Fold activation ≧150%)”.

For the compound `Cc1cc(-c2nc3c(cc2Cl)N2CC[C@@H](C2)N3C(=O)Nc2ccnc(OC[C@@H](O)CO)n2)ccn1` [Example 94, (4S)-8-chloro-N-(2-((S)-2,3-dihydroxypropoxy)pyrimidin-4-yl)-7-(2-methylpyridin-4-yl)-3,4-dihydro-1,4-methanopyrido[2,3-b][1,4]diazepine-5(2H)-carboxamide], the “TRP Activity (EC1.5)” value was “C (EC1.5>25 μM)” and the “TRP MAX RESP (percent maximum fold activation)” value was “B (Fold Activation <150%)”.

For the compound `Cc1cc(-c2nc3c(cc2Cl)N2CC[C@@H](C2)N3C(=O)Nc2cc(OC[C@H](O)CO)ncn2)ccn1` [Example 95, (4S)-8-chloro-N-(6-((R)-2,3-dihydroxypropoxy)pyrimidin-4-yl)-7-(2-methylpyridin-4-yl)-3,4-dihydro-1,4-methanopyrido[2,3-b][1,4]diazepine-5(2H)-carboxamide], the “TRP Activity (EC1.5)” value was “C (EC1.5>25 μM)” and the “TRP MAX RESP (percent maximum fold activation)” value was “B (Fold Activation <150%)”.

Take `Cc1cc(-c2nc3c(cc2Cl)N2CC[C@@H](C2)N3C(=O)Nc2ccnc(OC[C@H](O)CO)n2)ccn1` [Example 96, (4S)-8-chloro-N-(2-((R)-2,3-dihydroxypropoxy)pyrimidin-4-yl)-7-(2-methylpyridin-4-yl)-3,4-dihydro-1,4-methanopyrido[2,3-b][1,4]diazepine-5(2H)-carboxamide]: the “TRP Activity (EC1.5)” value is on record as “C (EC1.5>25 μM)” and the “TRP MAX RESP (percent maximum fold activation)” value is “B (Fold Activation <150%)”.

In the case of `Cc1cc(-c2nc3c(cc2Cl)N2CC[C@@H](C2)N3C(=O)Nc2cncc(OC[C@H](O)CO)n2)ccn1` [Example 97, (4S)-8-chloro-N-(6-((R)-2,3-dihydroxypropoxy)pyrazin-2-yl)-7-(2-methylpyridin-4-yl)-3,4-dihydro-1,4-methanopyrido[2,3-b][1,4]diazepine-5(2H)-carboxamide], the “TRP Activity (EC1.5)” value is recorded as “C (EC1.5>25 μM)” and the “TRP MAX RESP (percent maximum fold activation)” value is “B (Fold Activation <150%)”.

Regarding `Cc1cc(-c2nc3c(cc2Cl)N2CC[C@@H](C2)N3C(=O)Nc2cncc(OC[C@@H](O)CO)n2)ccn1` [Example 98, (4S)-8-chloro-N-(6-((S)-2,3-dihydroxypropoxy)pyrazin-2-yl)-7-(2-methylpyridin-4-yl)-3,4-dihydro-1,4-methanopyrido[2,3-b][1,4]diazepine-5(2H)-carboxamide], the “TRP Activity (EC1.5)” value is listed as “C (EC1.5>25 μM)” and the “TRP MAX RESP (percent maximum fold activation)” value was “B (Fold Activation <150%)”.

Consider `COc1ncc(-c2nc3c(cc2Cl)N2CC[C@@H](C2)N3C(=O)Nc2ccnc(OC[C@@H](O)CO)c2)cc1C(F)(F)F` [Example 99, (4S)-8-chloro-N-(2-((S)-2,3-dihydroxypropoxy)pyridin-4-yl)-7-(6-methoxy-5-(trifluoromethyl)pyridin-3-yl)-3,4-dihydro-1,4-methanopyrido[2,3-b][1,4]diazepine-5(2H)-carboxamide], for which the “TRP Activity (EC1.5)” value is on record as “B (EC1.5 1-25 μM)” and the “TRP MAX RESP (percent maximum fold activation)” value is reported as “A (Fold activation ≧150%)”.

`O=C(Nc1ccnc(OC[C@H](O)CO)c1)N1c2nc(-c3cnn(C4CC4)c3)c(Cl)cc2N2CC[C@H]1C2` [Example 100, (4S)-8-chloro-7-(1-cyclopropyl-1H-pyrazol-4-yl)-N-(2-((R)-2,3-dihydroxypropoxy)pyridin-4-yl)-3,4-dihydro-1,4-methanopyrido[2,3-b][1,4]diazepine-5(2H)-carboxamide]: the “TRP Activity (EC1.5)” value is reported as “B (EC1.5 1-25 μM)” and the “TRP MAX RESP (percent maximum fold activation)” value is given as “A (Fold activation ≧150%)”.

Consider `Cc1cc2c(nc1-c1cccc(C(F)(F)F)c1)N(C(=O)Nc1ccnc(OC[C@@H](O)CO)c1)[C@H]1CCN2C1` [Example 101, (4S)-N-(2-((S)-2,3-dihydroxypropoxy)pyridin-4-yl)-8-methyl-7-(3-(trifluoromethyl)phenyl)-3,4-dihydro-1,4-methanopyrido[2,3-b][1,4]diazepine-5(2H)-carboxamide], for which the “TRP Activity (EC1.5)” value is “A (EC1.5<1 μM)” and the “TRP MAX RESP (percent maximum fold activation)” value is “A (Fold activation ≧150%)”.

Turning to `O=C(Nc1ccnc(OC[C@@H](O)CO)c1)N1c2nc(-c3cnn(C4CC4)c3)c(Cl)cc2N2CC[C@H]1C2` [Example 102, (4S)-8-chloro-7-(1-cyclopropyl-1H-pyrazol-4-yl)-N-(2-((S)-2,3-dihydroxypropoxy)pyridin-4-yl)-3,4-dihydro-1,4-methanopyrido[2,3-b][1,4]diazepine-5(2H)-carboxamide], the “TRP Activity (EC1.5)” value is given as “B (EC1.5 1-25 μM)” and the “TRP MAX RESP (percent maximum fold activation)” value is “A (Fold activation ≧150%)”.

Take `COc1ncc(C(F)(F)F)cc1-c1nc2c(cc1Cl)N1CC[C@@H](C1)N2C(=O)Nc1ccnc(OC[C@@H](O)CO)c1` [Example 103, (4S)-8-chloro-N-(2-((S)-2,3-dihydroxypropoxy)pyridin-4-yl)-7-(2-methoxy-5-(trifluoromethyl)pyridin-3-yl)-3,4-dihydro-1,4-methanopyrido[2,3-b][1,4]diazepine-5(2H)-carboxamide]: the “TRP Activity (EC1.5)” value is given as “B (EC1.5 1-25 μM)” and the “TRP MAX RESP (percent maximum fold activation)” value was “A (Fold activation ≧150%)”.

In the case of `N#Cc1cc2c(nc1-c1cccc(C(F)(F)F)c1)N(C(=O)Nc1ccnc(OC[C@@H](O)CO)c1)[C@H]1CCN2C1` [Example 104, (4S)-8-cyano-N-(2-((S)-2,3-dihydroxypropoxy)pyridin-4-yl)-7-(3-(trifluoromethyl)phenyl)-3,4-dihydro-1,4-methanopyrido[2,3-b][1,4]diazepine-5(2H)-carboxamide], the “TRP Activity (EC1.5)” value is listed as “A (EC1.5<1 μM)” and the “TRP MAX RESP (percent maximum fold activation)” value is listed as “A (Fold activation ≧150%)”.

As for `Cn1cc(-c2nc3c(cc2Cl)N2CC[C@@H](C2)N3C(=O)Nc2ccnc(OC[C@@H](O)CO)c2)cn1` [Example 105, (4S)-8-chloro-N-(2-((S)-2,3-dihydroxypropoxy)pyridin-4-yl)-7-(1-methyl-1H-pyrazol-4-yl)-3,4-dihydro-1,4-methanopyrido[2,3-b][1,4]diazepine-5(2H)-carboxamide], the “TRP Activity (EC1.5)” value is “B (EC1.5 1-25 μM)” and the “TRP MAX RESP (percent maximum fold activation)” value was “A (Fold activation ≧150%)”.
